# Patent US20130216614A1, “IMMUNOGENIC COMPOSITIONS AND METHODS FOR TREATING NUEROLOGIC DISORDERS” (Glaxosmithkline Biologicals S.A., priority 2010, published 2013)
# Columns and labels:
# [1] = tested on: TLR2 mRNA; assay: In situ hybridization of TLR2 transcript in brain after peripheral injection; format: in vivo, C57BL/6J mice; conditions: 24 hr after single i.p. injection; CRX compounds 20 μg/mouse, 3D MPL 50 μg/mouse
# Text: In order to evaluate the innate activation within the brain, we have performed in situ hybridization 24 hr following the systemic injection of either 3D MPL, CRX524 or CRX527 or CRX601 using the intra peritoneal route.
# Specifically GSK Bio injected different compositions in C57BL/6J mice for evaluating the potency of those adjuvants after 24 hrs of peripheral injection to trigger microglial cell activation in the brain. Animal study groups were:
# GSK Bio performed the injections in C57BL6 mice at the Centre de biologie expérimentale de I'INRS-IAF under an IACUC approved protocol. Twenty four hours after the injections, mice were deeply anesthetized via an intraperitoneal injection of a mixture of ketamine hydrochloride and xylazine and then perfused intracardially with ice-cold 0.9% saline, followed by 4% paraformaldehyde (PFA) in a 0.1 M borax buffer, pH 9.5, at 4° C. Brains were rapidly removed from skulls, postfixed in PFA 1-3 d at 4° C. and sent to the CHUL. They were then cryoprotected in 10% sucrose diluted in PFA overnight. The frozen brains were sectioned into 25-μm-thick coronal sections using a microtome (Reichert-Jung, Cambridge Instruments Company), and slices were collected in a cold cryoprotectant solution (0.05 M sodium phosphate buffer, pH 7.3, 30% ethylene glycol, and 20% glycerol, stored at −20° C.).
# Every 12th section of brain slices, starting from the end of the olfactory bulb to the end of the cerebral cortex, was mounted on Colorfrost/Plus microscope slides (Fisher Scientific). In situ hybridization histochemical localization of TLR2 transcript was performed using ^35S-labeled cRNA probe. […]
# Dual labeling combining immunocytochemistry and in situ hybridization was performed as described previously (Laflamme and Rivest, 2001; Nadeau and Rivest, 2000 infra) to localize TLR2 transcripts in microglia (iba-1 staining). […] The images depicted by the different panels are representative of the signal detected on the slides for each group of mice.
# [2] = Innate cytokine/chemokine profile in sera after injection; format: in vivo, C57BL/6 mice
# Description: FIG. 17: Innate cytokines profile from sera after either LPS or 3DMPL injected mice using the intraperitoneal route at 2 hr or 6 hr post injection time point. Results are shown in relative units (RU or pg/ml) of various cytokines/chemokines in sera for PBS and LPS or 3DMPL injected mice after 2 hours or 6 hours. N=5 mice per group. […] Tukey post-hoc test used for the comparison following ANOVA-1 analysis.
# FIG. 18: Innate cytokines profile from sera after either AS01B, AS03 or AS04D injected mice using the intramuscular at 2 hr or 6 hr post injection time point. Results are shown in relative units (RU or pg/ml) of various cytokines/chemokines in sera for PBS and LPS or 3D MPL injected mice after 2 hours or 6 hours. N=5 mice per group. The bars represent mean±SEM.
# We measured several cytokines and chemokines in the sera of C57BL/6 mice 2 and 6 h following a single intraperitoneal injection of either MPL or LPS.
# Innate cytokines profile from sera after either AS01B, AS03 or AS04D was injected into mice using the intramuscular route, samples taken at 2 hr or 6 hr post injection time point. Results are shown in relative units (RU or pg/ml) of various cytokines/chemokines in sera for PBS and LPS or MPL injected mice after 2 hours or 6 hours. N=5 mice per group. The bars represent mean±SEM.
# [3] = tested on: peripheral blood monocytes; assay: Ex vivo uptake of fluorescent Aβ42 by peripheral blood monocytes from adjuvanted mice; format: in vivo, C57BL/6 mice; conditions: i.m. injection; AS01B mouse full dose, CRX601 2 μg dose
# Text: To begin to examine the function of the increase of monocytes in the peripheral blood, we examined the capacity of those monocytes to uptake Aβ42 in a test tube. In order to measure that phagocytic activity, we have used fluorescent HiLyteFluo Aβ42 (Anaspec Inc).
# We examined the capacity of monocytes to uptake Aβ42 in a test tube. In order to measure that phagocytic activity we have used fluorescent HiLyteFluo Aβ42 (Anaspec Inc).
# Preparation of cells: Peripheral blood was drawn from C57BL/6 mice via cardiac puncture with lithium-heparin as anticoagulant, 24-Hour after injection of the adjuvants used herein. Red blood cell lysis was performed twice on pooled blood with Ammonium Chloride-based Buffer (Sigma, Steinheim, Germany) and cells were counted with the EasyCount™ System (Immunicon). […]
# Samples were acquired on a flow cytometer (BD FACSCanto II) and data analyzed with the FACSDiva software (BD Biosciences).
# Monocytes were identified by their Side/Forward scatter properties, excluding debris and gated as CD3-/CD45R/B220-/Ly-6G-/NK1.1-(Lineage-)/CD11b+ cells. Aβ uptake was assessed by reporting the percentage and Mean Fluorescence Intensity (GeoMean) of positive HiLyte fluor488 Aβ1-42 cells among gated monocytes.
Compound,TLR2 mRNA activation in ventricular regions and choroid plexus [1],CCL2 level compared to the LPS group ([2]; 2 h after i.p. injection),CXCL-1 level compared to the LPS group ([2]; 2 h after i.p. injection),levels of TNF-α and IL-6 in sera ([2]; 2 h post i.p. injection),levels of TNF-α and IL-6 in sera ([2]; 6 h post i.p. injection),"serum cytokine and chemokine levels compared with LPS-treated animals ([2]; single i.p. injection, 2 and 6 h)",Aβ42 uptake by monocytes compared to PBS group [3]
3-O-desacyl-4′-monophosphoryl lipid A [3D MPL],lesser extent,higher,similar,modest increase,essentially abolished,substantially lower,–
CCCCCCCCCCC[C@H](CC(=O)N[C@H]1[C@H](OC[C@H](NC(=O)C[C@@H](CCCCCCCCCCC)OC(=O)CCCCCCCCC)C(=O)O)O[C@H](CO)[C@@H](OP(=O)(O)O)[C@@H]1OC(=O)C[C@@H](CCCCCCCCCCC)OC(=O)CCCCCCCCC)OC(=O)CCCCCCCCC [CRX527],clearly activated,–,–,–,–,–,–
CCCCCCCCCCC[C@H](CC(=O)N[C@H]1[C@H](OC[C@H](NC(=O)C[C@@H](CCCCCCCCCCC)OCCCCCCCCCC)C(=O)O)O[C@H](CO)[C@@H](OP(=O)(O)O)[C@@H]1OC(=O)C[C@@H](CCCCCCCCCCC)OCCCCCCCCCC)OCCCCCCCCCC [CRX601],clearly activated,–,–,–,–,–,higher amount
